Reference: US20220356186A1, “PERK INHIBITING PYRROLOPYRIMIDINE COMPOUNDS” (HiberCell, Inc., priority 2019, published 2022)
Where two headings read alike, the source gives them in different places.

Legend:
[1] = tested on: GFP-eIF2α in HEK293 cells; assay: PERK cellular assay, TR-FRET in HEK293-EGFP-eIF2a cells after tunicamycin-induced ER stress; type: cell-based
Method in brief: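 Compounds were added 30 min before a 2 h tunicamycin ([…]) challenge of lentivirally made GFP-eIF2α HEK293 cells, 5000/well; lysate TR-FRET ratio was the read-out.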

select kinases = assay: KINOMEscan in vitro competition binding assay for select kinases; conditions: for KINOMEscan competition binding, inhibition of AURKB: kinase AURKB; for KINOMEscan competition binding, inhibition of AXL: kinase AXL; for KINOMEscan competition binding, inhibition of BLK: kinase BLK; for KINOMEscan competition binding, inhibition of CAMK4: kinase CAMK4; for KINOMEscan competition binding, inhibition of CDK8: kinase CDK8; for KINOMEscan competition binding, inhibition of CDK11: kinase CDK11; for KINOMEscan competition binding, inhibition of CSF1R: kinase CSF1R; for KINOMEscan competition binding, inhibition of EIF2AK1: kinase EIF2AK1; for KINOMEscan competition binding, inhibition of EPHB6: kinase EPHB6; for KINOMEscan competition binding, inhibition of FLT3: kinase FLT3; for KINOMEscan competition binding, inhibition of HIPK4: kinase HIPK4; for KINOMEscan competition binding, inhibition of LOK: kinase LOK; for KINOMEscan competition binding, inhibition of MAP3K2: kinase MAP3K2; for KINOMEscan competition binding, inhibition of MAP3K3: kinase MAP3K3; for KINOMEscan competition binding, inhibition of MAP3K15: kinase MAP3K15; for KINOMEscan competition binding, inhibition of MEK5: kinase MEK5; for KINOMEscan competition binding, inhibition of MKNK2: kinase MKNK2; for KINOMEscan competition binding, inhibition of NEK1: kinase NEK1; for KINOMEscan competition binding, inhibition of NEK5: kinase NEK5; for KINOMEscan competition binding, inhibition of PIK3C2B: kinase PIK3C2B; for KINOMEscan competition binding, inhibition of RIOK2: kinase RIOK2; for KINOMEscan competition binding, inhibition of RIPK1: kinase RIPK1; for KINOMEscan competition binding, inhibition of RIPK2: kinase RIPK2; for KINOMEscan competition binding, inhibition of RIPK5: kinase RIPK5; for KINOMEscan competition binding, inhibition of TESK1: kinase TESK1; for KINOMEscan competition binding, inhibition of TIE2: kinase TIE2; for KINOMEscan competition binding, inhibition of TRKA: kinase TRKA; for KINOMEscan competition binding, inhibition of TRKB: kinase TRKB; for KINOMEscan competition binding, inhibition of TRKC: kinase TRKC; for KINOMEscan competition binding, inhibition of VRK2: kinase VRK2; for KINOMEscan competition binding, inhibition of YANK1: kinase YANK1; for KINOMEscan competition binding, inhibition of YANK2: kinase YANK2; for KINOMEscan competition binding, inhibition of YSK4: kinase YSK4
[2] = molecular target: T1, EIF2AK3 (PERK) catalytic domain (amino acids 536-1116) (Homo sapiens, UniProt Q9NZJ5); assay: PERK in vitro activity assay (isolated), TR-FRET kinase assay; type: biochemical
T1 construct: EIF2AK3 (PERK) catalytic domain (amino acids 536-1116)
T1 sequence (Q9NZJ5 536-1116): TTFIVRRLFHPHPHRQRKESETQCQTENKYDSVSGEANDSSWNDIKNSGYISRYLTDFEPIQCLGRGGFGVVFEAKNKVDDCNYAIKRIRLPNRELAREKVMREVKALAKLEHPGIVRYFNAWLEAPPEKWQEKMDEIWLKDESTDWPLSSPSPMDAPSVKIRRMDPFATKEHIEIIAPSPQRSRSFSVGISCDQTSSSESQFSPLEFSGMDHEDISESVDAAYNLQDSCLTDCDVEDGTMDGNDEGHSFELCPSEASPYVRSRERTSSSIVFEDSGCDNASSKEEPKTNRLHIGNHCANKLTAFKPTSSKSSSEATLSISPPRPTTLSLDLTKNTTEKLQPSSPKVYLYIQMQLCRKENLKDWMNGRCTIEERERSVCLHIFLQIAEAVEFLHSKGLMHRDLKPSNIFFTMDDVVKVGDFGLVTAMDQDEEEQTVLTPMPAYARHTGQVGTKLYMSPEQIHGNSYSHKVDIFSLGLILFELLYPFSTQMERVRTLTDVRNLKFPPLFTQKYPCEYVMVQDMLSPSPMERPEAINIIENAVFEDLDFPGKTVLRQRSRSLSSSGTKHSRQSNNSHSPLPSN
Method in brief: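 TR-FRET read-out: after EDTA stop (10 mM final), Tb-labelled phospho-eIF2a antibody (2 nM) for 90 min; IC50 via 4-parameter nonlinear fit. Reaction: PERK aa 536-1116, GFP-eIF2a 100-200 nM, HEPES pH 7.5 with MgCl2/EGTA/Brij-35, 45 min, room temperature, started by enzyme.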

Aqueous solubility = type: physicochemical
[3] = HEK293-EGFP-eIF2a cells, tunicamycin 2 hours, read-out: Cellular eIF2α IC50
[4] = isolated PERK enzyme, 1.5 μM ATP, read-out: Biochemical IC50
[5] = Homo sapiens, HEK293, cellular potency, Table 2, read-out: P-EIF2α IC50
[6] = biochemical potency, Table 2, read-out: PERK IC50

Row | Structure (SMILES) | IC50 [1, 3] [nM] | KINOMEscan competition binding, inhibition of AURKB (select kinases) | KINOMEscan competition binding, inhibition of AXL (select kinases) | KINOMEscan competition binding, inhibition of BLK (select kinases) | KINOMEscan competition binding, inhibition of CAMK4 (select kinases) | KINOMEscan competition binding, inhibition of CDK8 (select kinases) | KINOMEscan competition binding, inhibition of CDK11 (select kinases) | KINOMEscan competition binding, inhibition of CSF1R (select kinases) | KINOMEscan competition binding, inhibition of EIF2AK1 (select kinases) | KINOMEscan competition binding, inhibition of EPHB6 (select kinases) | KINOMEscan competition binding, inhibition of FLT3 (select kinases) | KINOMEscan competition binding, inhibition of HIPK4 (select kinases) | KINOMEscan competition binding, inhibition of LOK (select kinases) | KINOMEscan competition binding, inhibition of MAP3K2 (select kinases) | KINOMEscan competition binding, inhibition of MAP3K3 (select kinases) | KINOMEscan competition binding, inhibition of MAP3K15 (select kinases) | KINOMEscan competition binding, inhibition of MEK5 (select kinases) | KINOMEscan competition binding, inhibition of MKNK2 (select kinases) | KINOMEscan competition binding, inhibition of NEK1 (select kinases) | IC50 [2, 4] [nM] | also measured
1 | Cc1nc(N)c2c(-c3ccc(NC(=O)C(O)c4cccc(F)c4)cc3C)cn(C)c2n1 (single isomer, unassigned) [Example 1, N-(4-(4-amino-2,7-dimethyl-7H-pyrrolo[2,3-d]pyrimidin-5-yl)-3-methylphenyl)-2-(3-fluorophenyl)-2-hydroxyacetamide] | 26 to 50 | No Inhibition (“No Inhibition” refers to less than 50% inhibition) | No Inhibition (“No Inhibition” refers to less than 50% inhibition) | No Inhibition (“No Inhibition” refers to less than 50% inhibition) | No Inhibition (“No Inhibition” refers to less than 50% inhibition) | No Inhibition (“No Inhibition” refers to less than 50% inhibition) | No Inhibition (“No Inhibition” refers to less than 50% inhibition) | No Inhibition (“No Inhibition” refers to less than 50% inhibition) | No Inhibition (“No Inhibition” refers to less than 50% inhibition) | No Inhibition (“No Inhibition” refers to less than 50% inhibition) | No Inhibition (“No Inhibition” refers to less than 50% inhibition) | No Inhibition (“No Inhibition” refers to less than 50% inhibition) | No Inhibition (“No Inhibition” refers to less than 50% inhibition) | No Inhibition (“No Inhibition” refers to less than 50% inhibition) | No Inhibition (“No Inhibition” refers to less than 50% inhibition) | No Inhibition (“No Inhibition” refers to less than 50% inhibition) | No Inhibition (“No Inhibition” refers to less than 50% inhibition) | No Inhibition (“No Inhibition” refers to less than 50% inhibition) | No Inhibition (“No Inhibition” refers to less than 50% inhibition) | 1 to 25 | KINOMEscan competition binding, inhibition of NEK5 (select kinases): No Inhibition (“No Inhibition” refers to less than 50% inhibition); KINOMEscan competition binding, inhibition of PIK3C2B (select kinases): No Inhibition (“No Inhibition” refers to less than 50% inhibition); KINOMEscan competition binding, inhibition of RIOK2 (select kinases): No Inhibition (“No Inhibition” refers to less than 50% inhibition); KINOMEscan competition binding, inhibition of RIPK1 (select kinases): No Inhibition (“No Inhibition” refers to less than 50% inhibition); KINOMEscan competition binding, inhibition of RIPK2 (select kinases): No Inhibition (“No Inhibition” refers to less than 50% inhibition); KINOMEscan competition binding, inhibition of RIPK5 (select kinases): No Inhibition (“No Inhibition” refers to less than 50% inhibition); KINOMEscan competition binding, inhibition of TESK1 (select kinases): No Inhibition (“No Inhibition” refers to less than 50% inhibition); KINOMEscan competition binding, inhibition of TIE2 (select kinases): No Inhibition (“No Inhibition” refers to less than 50% inhibition); KINOMEscan competition binding, inhibition of TRKA (select kinases): No Inhibition (“No Inhibition” refers to less than 50% inhibition); KINOMEscan competition binding, inhibition of TRKB (select kinases): No Inhibition (“No Inhibition” refers to less than 50% inhibition); KINOMEscan competition binding, inhibition of TRKC (select kinases): No Inhibition (“No Inhibition” refers to less than 50% inhibition); KINOMEscan competition binding, inhibition of VRK2 (select kinases): No Inhibition (“No Inhibition” refers to less than 50% inhibition); KINOMEscan competition binding, inhibition of YANK1 (select kinases): No Inhibition (“No Inhibition” refers to less than 50% inhibition); KINOMEscan competition binding, inhibition of YANK2 (select kinases): No Inhibition (“No Inhibition” refers to less than 50% inhibition); KINOMEscan competition binding, inhibition of YSK4 (select kinases): No Inhibition (“No Inhibition” refers to less than 50% inhibition); Kinase selectivity (select kinases; versus Example 9 and GSK2656157, KINOMEscan, Treespot analysis): more selective
2 | Cc1cc(NC(=O)C(O)c2cccc(F)c2)ccc1-c1cn(C)c2ncnc(N)c12 (stereo not shown) [Example 9, N-(4-(4-amino-7-methyl-7H-pyrrolo[2,3-d]pyrimidin-5-yl)-3-methylphenyl)-2-(3-fluorophenyl)-2-hydroxyacetamide] | 1 to 25 | Inhibition (“Inhibition” refers to greater than 50% inhibition) | No inhibition | Inhibition (“Inhibition” refers to greater than 50% inhibition) | Inhibition (“Inhibition” refers to greater than 50% inhibition) | Inhibition (“Inhibition” refers to greater than 50% inhibition) | Inhibition (“Inhibition” refers to greater than 50% inhibition) | Inhibition (“Inhibition” refers to greater than 50% inhibition) | Inhibition (“Inhibition” refers to greater than 50% inhibition) | Inhibition (“Inhibition” refers to greater than 50% inhibition) | Inhibition (“Inhibition” refers to greater than 50% inhibition) | Inhibition (“Inhibition” refers to greater than 50% inhibition) | Inhibition (“Inhibition” refers to greater than 50% inhibition) | Inhibition (“Inhibition” refers to greater than 50% inhibition) | Inhibition (“Inhibition” refers to greater than 50% inhibition) | Inhibition (“Inhibition” refers to greater than 50% inhibition) | Inhibition (“Inhibition” refers to greater than 50% inhibition) | Inhibition (“Inhibition” refers to greater than 50% inhibition) | Inhibition (“Inhibition” refers to greater than 50% inhibition) | 1 to 25 | KINOMEscan competition binding, inhibition of NEK5 (select kinases): Inhibition (“Inhibition” refers to greater than 50% inhibition); KINOMEscan competition binding, inhibition of PIK3C2B (select kinases): Inhibition (“Inhibition” refers to greater than 50% inhibition); KINOMEscan competition binding, inhibition of RIOK2 (select kinases): Inhibition (“Inhibition” refers to greater than 50% inhibition); KINOMEscan competition binding, inhibition of RIPK1 (select kinases): No Inhibition (“No Inhibition” refers to less than 50% inhibition); KINOMEscan competition binding, inhibition of RIPK2 (select kinases): Inhibition (“Inhibition” refers to greater than 50% inhibition); KINOMEscan competition binding, inhibition of RIPK5 (select kinases): Inhibition (“Inhibition” refers to greater than 50% inhibition); KINOMEscan competition binding, inhibition of TESK1 (select kinases): Inhibition (“Inhibition” refers to greater than 50% inhibition); KINOMEscan competition binding, inhibition of TIE2 (select kinases): Inhibition (“Inhibition” refers to greater than 50% inhibition); KINOMEscan competition binding, inhibition of TRKA (select kinases): Inhibition (“Inhibition” refers to greater than 50% inhibition); KINOMEscan competition binding, inhibition of TRKB (select kinases): Inhibition (“Inhibition” refers to greater than 50% inhibition); KINOMEscan competition binding, inhibition of TRKC (select kinases): Inhibition (“Inhibition” refers to greater than 50% inhibition); KINOMEscan competition binding, inhibition of VRK2 (select kinases): Inhibition (“Inhibition” refers to greater than 50% inhibition); KINOMEscan competition binding, inhibition of YANK1 (select kinases): Inhibition (“Inhibition” refers to greater than 50% inhibition); KINOMEscan competition binding, inhibition of YANK2 (select kinases): Inhibition (“Inhibition” refers to greater than 50% inhibition); KINOMEscan competition binding, inhibition of YSK4 (select kinases): Inhibition (“Inhibition” refers to greater than 50% inhibition)
3 | Cc1cc(NC(=O)Cc2ccccc2)ccc1-c1cn(C)c2ncnc(N)c12 [Compound A, reference compound] | – | – | – | – | – | – | – | – | – | – | – | – | – | – | – | – | – | – | – | – | IC50 [1, 5]: 41 nM; IC50 [2, 6]: 6 nM; Aq Sol (Aqueous solubility): 14 µM
4 | Cc1cc(NC(=O)C(O)c2ccccc2)ccc1-c1cn(C)c2ncnc(N)c12 (stereo not shown) [Example 6, N-(4-(4-amino-7-methyl-7H-pyrrolo[2,3-d]pyrimidin-5-yl)-3-methylphenyl)-2-hydroxy-2-phenylacetamide] | 1 to 25 | – | – | – | – | – | – | – | – | – | – | – | – | – | – | – | – | – | – | 1 to 25 | IC50 [1, 5]: 23 nM; IC50 [2, 6]: 2 nM; Aq Sol (Aqueous solubility): 57 µM
